According to ChEMBL document CHEMBL4251601 (Eur J Med Chem, 2018):
The source made the active and inactive calls. The rule behind the calls is not given here.

Assays:
[1] = Cmax in Sprague-Dawley rat at 5 mg/kg, po administered as single dose by LC-MS/MS analysis; type: ADME, organism-based; design: dose 5 mg/kg, route oral; conditions: in vivo
[2] = target: Serine/threonine-protein kinase TAO2 (Homo sapiens) (UniProt Q9UL54); assay: Inhibition of recombinant human GST-tagged TAOK2 expressed in baculovirus expression system at 0.1 uM by Z'-Lyte assay relative to control
[3] = AUC (0 to infinity) in Sprague-Dawley rat at 5 mg/kg, po administered as single dose by LC-MS/MS analysis; type: ADME, organism-based; design: dose 5 mg/kg, route oral, time infinity; conditions: Sprague-Dawley, in vivo
[4] = 1-octanol-phosphate buffer distribution coefficient, log D of the compound at pH 7.4 after 1 hr by LC-MS/MS method; type: physicochemical
[5] = target: RAC-gamma serine/threonine-protein kinase (Homo sapiens) (UniProt Q9Y243); assay: Inhibition of recombinant full length human His-tagged AKT3 expressed in baculovirus expression system at 0.1 uM by TR-FRET assay relative to control
[6] = Unbound AUC (0 to 24 hrs) in CD-1 mouse plasma at 10 mg/kg, po administered as single dose by LC-MS/MS analysis; type: ADME, organism-based; conditions: in vivo
[7] = target: Tyrosine-protein kinase receptor UFO (Homo sapiens) (UniProt P30530); assay: Inhibition of recombinant human N-terminal GST tagged AXL (473-end residues) expressed in baculovirus infected Sf9 cells at 0.1 uM by Z'-Lyte assay relative to control
U-87 MG [8] = assay: Antitumor activity against luciferase-fused human U87MG cells orthotopically xenografted in nude mouse assessed as increase in mouse life span at 12.5 mg/kg, po qd for 5 weeks relative to control; type: functional, U-87MG ATCC; conditions: 840 h
[9] = AUC (0 to 48 hrs) in CD-1 mouse plasma at 10 mg/kg, po administered as single dose by LC-MS/MS analysis; type: ADME, organism-based; design: time < 48 hr, dose 10 mg/kg, route oral
[10] = target: Aurora kinase B (Homo sapiens) (UniProt Q96GD4); assay: Inhibition of recombinant full length human His-tagged AURKB expressed in baculovirus expression system at 0.1 uM by Z'-Lyte assay relative to control
Chain of Aurora kinase B (Homo sapiens) (Q96GD4 whole entry, the tested form may be a part): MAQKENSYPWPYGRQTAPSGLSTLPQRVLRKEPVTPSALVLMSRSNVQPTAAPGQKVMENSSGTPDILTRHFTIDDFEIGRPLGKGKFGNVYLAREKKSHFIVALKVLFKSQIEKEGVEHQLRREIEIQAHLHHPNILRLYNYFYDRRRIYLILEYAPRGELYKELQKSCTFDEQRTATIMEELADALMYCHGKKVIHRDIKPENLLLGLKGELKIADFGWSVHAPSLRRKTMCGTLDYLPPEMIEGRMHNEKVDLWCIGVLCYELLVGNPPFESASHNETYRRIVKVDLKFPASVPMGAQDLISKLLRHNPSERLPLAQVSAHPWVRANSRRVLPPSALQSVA

U-87 MG [11] = assay: Antitumor activity against luciferase-fused human U87MG cells orthotopically xenografted in nude mouse assessed as increase in mouse life span at 3.125 mg/kg, po qd for 5 weeks relative to control; type: functional, U-87MG ATCC; conditions: 840 h
Mus musculus = assay: In vivo inhibition of CDK4/6 in nude mouse xenografted with human COLO205 cells assessed as reduction in Ser-780-phosphorylated Rb level in tumor at 100 mg/kg administered via oral gavage measured after 24 to 48 hrs by Western blot analysis; type: functional, organism-based
[12] = target: Glycogen synthase kinase-3 beta (Homo sapiens) (UniProt P49841); assay: Inhibition of recombinant human full length His-tagged GSK3beta expressed in baculovirus expression system at 1 uM by Z'-Lyte assay relative to control
Chain of Glycogen synthase kinase-3 beta (Homo sapiens) (P49841 whole entry, looked up, the tested form may be a part): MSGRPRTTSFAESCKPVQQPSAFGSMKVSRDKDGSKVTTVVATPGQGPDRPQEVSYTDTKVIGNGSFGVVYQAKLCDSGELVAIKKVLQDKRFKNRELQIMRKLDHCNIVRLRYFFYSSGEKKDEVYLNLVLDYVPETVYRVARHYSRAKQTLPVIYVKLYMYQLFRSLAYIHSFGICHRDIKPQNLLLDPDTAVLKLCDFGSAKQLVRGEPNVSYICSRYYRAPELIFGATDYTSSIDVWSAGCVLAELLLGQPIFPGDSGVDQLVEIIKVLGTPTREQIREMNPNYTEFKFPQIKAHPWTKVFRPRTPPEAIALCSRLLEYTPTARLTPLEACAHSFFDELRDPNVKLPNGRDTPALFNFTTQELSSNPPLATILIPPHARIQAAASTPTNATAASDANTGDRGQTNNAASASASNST

[13] = target: Platelet-derived growth factor receptor beta (Homo sapiens) (UniProt P09619); assay: Inhibition of recombinant human His-tagged PDGFRbeta cytoplasmic domain expressed in baculovirus expression system at 0.1 uM by Z'-Lyte assay relative to control
[14] = target: Tyrosine-protein kinase Mer (Homo sapiens) (UniProt Q12866); assay: Inhibition of recombinant human GST-tagged MERTK (578 to 872 residues) expressed in baculovirus expression system at 1 uM by Z'-Lyte assay relative to control
Chain of Tyrosine-protein kinase Mer (Homo sapiens) (Q12866 whole entry, the tested form may be a part): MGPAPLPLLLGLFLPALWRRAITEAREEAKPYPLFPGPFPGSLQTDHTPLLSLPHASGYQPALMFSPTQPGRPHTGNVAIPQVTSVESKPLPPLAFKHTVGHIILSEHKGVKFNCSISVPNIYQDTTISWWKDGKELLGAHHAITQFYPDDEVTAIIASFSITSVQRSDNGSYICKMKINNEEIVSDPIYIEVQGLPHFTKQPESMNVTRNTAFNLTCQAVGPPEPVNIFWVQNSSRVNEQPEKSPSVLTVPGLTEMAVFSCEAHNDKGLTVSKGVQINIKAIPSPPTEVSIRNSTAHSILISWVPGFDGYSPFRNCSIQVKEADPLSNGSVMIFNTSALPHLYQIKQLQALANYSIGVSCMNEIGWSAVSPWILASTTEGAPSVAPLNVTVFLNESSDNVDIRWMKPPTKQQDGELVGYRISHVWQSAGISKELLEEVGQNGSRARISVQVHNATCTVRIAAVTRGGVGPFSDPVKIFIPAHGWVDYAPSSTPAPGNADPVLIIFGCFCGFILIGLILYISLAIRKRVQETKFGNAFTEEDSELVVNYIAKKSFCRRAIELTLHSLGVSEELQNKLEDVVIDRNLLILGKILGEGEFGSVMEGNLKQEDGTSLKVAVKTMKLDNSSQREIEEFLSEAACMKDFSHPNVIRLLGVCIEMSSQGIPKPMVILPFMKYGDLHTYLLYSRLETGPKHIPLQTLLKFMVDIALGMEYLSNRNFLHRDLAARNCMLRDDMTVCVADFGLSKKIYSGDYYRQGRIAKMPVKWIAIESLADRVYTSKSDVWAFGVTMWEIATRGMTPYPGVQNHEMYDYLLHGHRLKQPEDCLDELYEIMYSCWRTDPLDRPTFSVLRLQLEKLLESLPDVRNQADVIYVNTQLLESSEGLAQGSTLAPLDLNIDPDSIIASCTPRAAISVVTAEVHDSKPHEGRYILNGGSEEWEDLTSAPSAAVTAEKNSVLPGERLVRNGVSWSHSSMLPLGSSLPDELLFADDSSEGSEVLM

[15] = target: Dual specificity tyrosine-phosphorylation-regulated kinase 3 (Homo sapiens) (UniProt O43781); assay: Inhibition of recombinant full length human GST-tagged DYRK3 expressed in baculovirus expression system at 0.1 uM by Z'-Lyte assay relative to control
Chain of Dual specificity tyrosine-phosphorylation-regulated kinase 3 (Homo sapiens) (O43781 whole entry): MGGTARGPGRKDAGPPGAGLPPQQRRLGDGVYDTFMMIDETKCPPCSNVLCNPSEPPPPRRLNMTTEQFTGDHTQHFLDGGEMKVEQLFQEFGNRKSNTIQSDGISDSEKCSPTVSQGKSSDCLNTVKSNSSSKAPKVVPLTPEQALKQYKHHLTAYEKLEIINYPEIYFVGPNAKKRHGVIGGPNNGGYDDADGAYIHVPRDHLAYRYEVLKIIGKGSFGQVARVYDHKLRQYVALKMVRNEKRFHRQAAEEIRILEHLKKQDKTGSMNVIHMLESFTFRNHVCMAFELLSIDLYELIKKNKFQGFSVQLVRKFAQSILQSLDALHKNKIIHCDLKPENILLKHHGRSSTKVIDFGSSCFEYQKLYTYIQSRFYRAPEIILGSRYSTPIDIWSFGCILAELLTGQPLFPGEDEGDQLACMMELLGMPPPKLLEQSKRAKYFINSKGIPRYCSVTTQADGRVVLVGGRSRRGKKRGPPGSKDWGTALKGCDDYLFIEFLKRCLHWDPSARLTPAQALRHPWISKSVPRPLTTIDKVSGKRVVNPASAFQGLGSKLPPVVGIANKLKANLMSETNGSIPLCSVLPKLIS

[16] = target: Protein kinase C beta type (Homo sapiens) (UniProt P05771); assay: Inhibition of PKCbeta2 (unknown origin) at 1 uM by Z'-Lyte assay relative to control
Chain of Protein kinase C beta type (Homo sapiens) (P05771 2-671 limits assumed): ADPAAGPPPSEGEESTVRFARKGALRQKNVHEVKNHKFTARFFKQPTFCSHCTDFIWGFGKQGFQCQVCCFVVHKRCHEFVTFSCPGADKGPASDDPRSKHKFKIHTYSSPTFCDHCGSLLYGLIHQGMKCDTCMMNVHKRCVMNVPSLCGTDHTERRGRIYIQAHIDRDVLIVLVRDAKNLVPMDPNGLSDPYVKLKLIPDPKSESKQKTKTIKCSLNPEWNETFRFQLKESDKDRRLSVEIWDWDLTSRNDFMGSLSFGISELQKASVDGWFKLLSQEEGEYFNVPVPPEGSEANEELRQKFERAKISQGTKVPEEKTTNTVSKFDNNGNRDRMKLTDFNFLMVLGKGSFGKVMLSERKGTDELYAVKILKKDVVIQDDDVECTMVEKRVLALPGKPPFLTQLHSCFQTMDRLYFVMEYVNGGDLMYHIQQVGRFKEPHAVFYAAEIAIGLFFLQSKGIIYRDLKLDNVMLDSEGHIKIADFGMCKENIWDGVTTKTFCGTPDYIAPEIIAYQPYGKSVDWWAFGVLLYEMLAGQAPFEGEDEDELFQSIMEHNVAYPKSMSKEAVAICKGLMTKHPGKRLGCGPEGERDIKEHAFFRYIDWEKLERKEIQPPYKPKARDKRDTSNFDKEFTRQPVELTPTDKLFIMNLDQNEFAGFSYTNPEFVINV

[17] = Volume of distribution at steady state in ICR mouse at 2 mg/kg, iv administered as single dose by LC-MS/MS analysis; type: ADME, organism-based; conditions: in vivo, read-out: Vdss
[18] = target: Tyrosine-protein kinase SYK (Homo sapiens) (UniProt P43405); assay: Inhibition of recombinant human full length GST-tagged SYK expressed in baculovirus expression system at 1 uM by Z'-Lyte assay relative to control
U-87 MG [19] = assay: Cell cycle arrest in human U87MG cells after assessed as accumulation at G1-phase after 24 hrs by propidium iodide staining based flow cytometry; type: functional, U-87MG ATCC
U-87 MG [20] = assay: Antitumor activity against luciferase-fused human U87MG cells orthotopically xenografted in nude mouse assessed as tumor growth inhibition at 12.5 mg/kg, po qd for 4 weeks by bioluminescence imaging relative to control; type: functional, U-87MG ATCC; conditions: 672 h, read-out: TGI
[21] = target: Fibroblast growth factor receptor 1 (Homo sapiens) (UniProt P11362); assay: Inhibition of recombinant human His-tagged FGFR1 cytoplasmic domain expressed in baculovirus expression system at 0.1 uM by Z'-Lyte assay relative to control
[22] = target: Ephrin type-A receptor 2 (Homo sapiens) (UniProt P29317); assay: Inhibition of recombinant human GST-tagged EPHA2 cytoplasmic domain expressed in baculovirus expression system at 0.1 uM by Z'-Lyte assay relative to control
[23] = target: Leucine-rich repeat serine/threonine-protein kinase 2 (Homo sapiens) (UniProt Q5S007); assay: Inhibition of recombinant human GST-tagged LRRK2 (970 to 2527 residues) expressed in baculovirus expression system at 1 uM by TR-FRET assay relative to control
[24] = Tmax in CD-1 mouse plasma at 10 mg/kg, po administered as single dose by LC-MS/MS analysis; type: ADME, organism-based
[25] = target: Mitogen-activated protein kinase kinase kinase 14 (Homo sapiens, UniProt Q99558); assay: Inhibition of recombinant human GST-tagged NIK expressed in baculovirus expression system at 0.1 uM by Z'-Lyte assay relative to control
[26] = target: Casein kinase II subunit alpha (Homo sapiens) (UniProt P68400); assay: Inhibition of recombinant full length human His-tagged CK2alpha1 expressed in baculovirus expression system at 0.1 uM by Z'-Lyte assay relative to control
[27] = target: Serine/threonine-protein kinase PLK1 (Homo sapiens) (UniProt P53350); assay: Inhibition of recombinant human full length His-tagged PLK1 expressed in baculovirus expression system at 0.1 uM by Z'-Lyte assay relative to control
[28] = target: Cytoplasmic tyrosine-protein kinase BMX (Homo sapiens) (UniProt P51813); assay: Inhibition of recombinant full length human His-tagged BMX expressed in baculovirus expression system at 1 uM by TR-FRET assay relative to control
[29] = AUC (0 to infinity) in CD-1 mouse brain at 10 mg/kg, po administered as single dose by LC-MS/MS analysis; type: ADME, organism-based; design: dose 10 mg/kg, time infinity, route oral; conditions: in vivo
[30] = target: RAF proto-oncogene serine/threonine-protein kinase (Homo sapiens) (UniProt P04049); assay: Inhibition of RAF1 (unknown origin) at 0.1 uM by TR-FRET assay relative to control
Chain of RAF proto-oncogene serine/threonine-protein kinase (Homo sapiens) (P04049 whole entry, the tested form may be a part): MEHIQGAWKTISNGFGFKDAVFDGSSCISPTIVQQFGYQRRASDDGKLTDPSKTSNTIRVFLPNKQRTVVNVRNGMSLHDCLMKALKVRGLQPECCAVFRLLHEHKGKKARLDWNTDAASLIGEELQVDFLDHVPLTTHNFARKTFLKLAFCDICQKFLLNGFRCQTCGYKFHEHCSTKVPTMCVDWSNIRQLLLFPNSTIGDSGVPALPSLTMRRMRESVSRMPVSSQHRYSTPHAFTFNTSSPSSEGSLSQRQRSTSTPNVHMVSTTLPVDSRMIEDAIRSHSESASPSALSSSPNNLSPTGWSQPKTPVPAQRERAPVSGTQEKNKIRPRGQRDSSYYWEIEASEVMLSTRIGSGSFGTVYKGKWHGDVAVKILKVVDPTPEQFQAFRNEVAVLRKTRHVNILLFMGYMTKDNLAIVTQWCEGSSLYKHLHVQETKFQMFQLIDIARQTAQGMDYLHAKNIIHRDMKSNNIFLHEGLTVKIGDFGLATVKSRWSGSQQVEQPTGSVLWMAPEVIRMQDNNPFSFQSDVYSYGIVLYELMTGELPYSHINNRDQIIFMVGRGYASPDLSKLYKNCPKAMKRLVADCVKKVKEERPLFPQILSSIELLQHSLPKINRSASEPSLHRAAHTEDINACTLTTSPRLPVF

[31] = target: Vascular endothelial growth factor receptor 2 (Homo sapiens) (UniProt P35968); assay: Inhibition of recombinant human His-tagged KDR cytoplasmic domain expressed in baculovirus expression system at 1 uM by Z'-Lyte assay relative to control
Chain of Vascular endothelial growth factor receptor 2 (Homo sapiens) (P35968 whole entry, the tested form may be a part): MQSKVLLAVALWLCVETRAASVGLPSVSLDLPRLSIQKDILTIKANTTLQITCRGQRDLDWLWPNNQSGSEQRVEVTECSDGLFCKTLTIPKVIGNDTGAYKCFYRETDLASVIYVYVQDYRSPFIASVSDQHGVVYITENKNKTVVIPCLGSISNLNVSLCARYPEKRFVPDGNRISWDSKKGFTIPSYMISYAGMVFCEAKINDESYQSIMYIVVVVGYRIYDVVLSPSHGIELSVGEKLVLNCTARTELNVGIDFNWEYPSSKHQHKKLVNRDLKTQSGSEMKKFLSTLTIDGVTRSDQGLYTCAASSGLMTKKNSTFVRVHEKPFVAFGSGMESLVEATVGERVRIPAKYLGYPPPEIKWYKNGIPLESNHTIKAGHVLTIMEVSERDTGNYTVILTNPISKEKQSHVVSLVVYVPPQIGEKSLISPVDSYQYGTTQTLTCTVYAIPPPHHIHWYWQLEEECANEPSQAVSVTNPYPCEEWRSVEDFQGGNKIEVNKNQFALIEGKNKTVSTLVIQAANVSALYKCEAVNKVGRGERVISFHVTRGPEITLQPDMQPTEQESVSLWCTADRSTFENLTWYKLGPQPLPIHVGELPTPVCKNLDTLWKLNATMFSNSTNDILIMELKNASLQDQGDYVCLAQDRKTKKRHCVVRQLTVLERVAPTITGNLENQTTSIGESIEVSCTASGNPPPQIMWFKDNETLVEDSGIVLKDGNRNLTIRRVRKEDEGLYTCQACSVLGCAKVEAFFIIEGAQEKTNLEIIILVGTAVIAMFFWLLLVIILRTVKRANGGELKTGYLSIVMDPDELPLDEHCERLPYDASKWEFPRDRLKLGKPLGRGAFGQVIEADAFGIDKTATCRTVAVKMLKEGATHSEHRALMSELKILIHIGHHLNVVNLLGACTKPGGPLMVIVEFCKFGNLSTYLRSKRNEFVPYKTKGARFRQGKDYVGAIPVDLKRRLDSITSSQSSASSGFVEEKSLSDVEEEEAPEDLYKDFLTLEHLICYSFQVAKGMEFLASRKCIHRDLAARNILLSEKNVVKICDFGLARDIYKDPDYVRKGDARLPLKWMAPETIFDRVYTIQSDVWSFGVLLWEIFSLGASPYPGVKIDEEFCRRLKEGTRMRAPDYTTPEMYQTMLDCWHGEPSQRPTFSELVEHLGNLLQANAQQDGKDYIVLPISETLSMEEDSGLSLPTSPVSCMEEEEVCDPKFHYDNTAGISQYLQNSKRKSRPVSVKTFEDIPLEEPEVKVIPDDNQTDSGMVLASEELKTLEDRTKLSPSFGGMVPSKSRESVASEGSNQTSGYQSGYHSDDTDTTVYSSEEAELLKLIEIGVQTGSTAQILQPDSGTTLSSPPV

Work on `CC1=Nc2c(F)cc(-c3nc(Nc4ccc(C5CCN(C)CC5)cn4)ncc3F)cc2C12CCCC2` [CROZBACICLIB] yielded a Cmax [1] of 134 ng/mL, an inhibition [2] of 26% and an AUC(0-inf) [3] of 1580 ng·h/mL. For the same compound, the logD at 1 h [4] was 3.49, the inhibition [5] was 10% and the fAUC [6] was 63.45 ng·h/mL. The inhibition [7] was -1%, the ILS at 12.5 mg/kg (U-87 MG [8]) was 48% and the AUC(0-t) at 48 h [9] was 9060 ng·h/mL. For the same compound, the inhibition [10] was 0%, the ILS at 3.125 mg/kg (U-87 MG [11]) was 28% and the inhibition (Mus musculus) was “Active”. It also gave an inhibition [12] of 81%, an inhibition [13] of 4% and an inhibition [14] of 13%. For the same compound, the inhibition [15] was 29%, the inhibition [16] was 52% and the Vd [17] was 17.8 L/kg. The inhibition [18] was 26%, the Emax (U-87 MG [19]) was 41.1% and the Activity (U-87 MG [19]; U-87MG ATCC) was “Dose-dependent effect”. It also gave an inhibition in vivo at 12.5 mg/kg (U-87 MG [20]) of 92%, an inhibition [21] of -8% and an inhibition [22] of 6%. It also gave an inhibition [23] of 34%, a Tmax [24] of 2 h and an inhibition [25] of 56%. For the same compound, the inhibition [26] was 5%, the inhibition [27] was -3% and the inhibition [28] was 19%. For the same compound, the AUC [29] was 37438 ng·h/g, the inhibition [30] was -10% and the inhibition [31] was 14%.
